This note sets out measurements from patent US20210222225A1, “Medium for Disk Diffusion Method to Evaluate Antibiotic Sensitivity” (priority 2018, published 2021).

The test system of assay [1] is ABA, KPN and PAE strains. Nature of the assay: Growth of strain on guanidine hydrochloride-containing medium. It counts as cell-based. As to conditions: guanidine hydrochloride 5 to 50 μg/ml; agar 5.1 g/L.
Procedure: A concentration of agar particles (BD Diagnostic, Sparks, Md., USA) in Mueller-Hinton broth medium (BD Diagnostic) was adjusted to 5.1 g/L, which is 30% of 17 g/L, and guanidine hydrochloride was added to a concentration of 500 μg/ml, 50 μg/ml, or 5 μg/ml. Then, solidification was performed. On a surface of each medium thus prepared was evenly inoculated each of colistin-susceptible (S) or -resistant (R) Acinetobacter baumannii (ABA) strain, colistin-susceptible (S) or -resistant (R) Klebsiella pnemoniae (KPN) strain, and colistin-susceptible (S) or -resistant (R) Pseudomonas aeruginosa (PAE) strain, and a colistin disk was placed thereon.
Assay [2] deals with PAE ATCC 27853. Nature of the assay: Growth of strain on protamine-containing medium, PAE. It is filed as cell-based, Pseudomonas aeruginosa. As to the method:
(§1) As in Example 1, a concentration of agar particles (BD Diagnostic, Sparks, Md., USA) in Mueller-Hinton broth medium (BD Diagnostic) was adjusted to 17 g/L or 5.1 g/L that is 30% of 17 g/L. To select a concentration of protamine, which can enhance diffusion of colistin from a disk without interfering with bacterial growth, while using the protamine at various concentrations, protamine (Sigma-Aldrich, St Louis, Mo., USA) was added to the medium at concentrations of 1 mg/ml, 700 μg/ml, 400 μg/ml, 300 μg/ml, 200 μg/ml, 150 μg/ml, 100 μg/ml, and 50 μg/ml. Each medium thus modified was solidified. Then, on a surface of each medium was evenly inoculated each of colistin-susceptible (S) or -resistant (R) Acinetobacter calcoaceticus-baumannii complex (ACB) strain, Pseudomonas aeruginosa ATCC27853 strain, and mcr-1-harboring Enterobacter aerogenes strain, and a colistin disk was placed thereon. Then, it was determined whether each strain was grown, and a diameter of a growth inhibition zone, which had been formed around the disk, was measured.

In assay [3] the test system is mcr-1-harboring Enterobacter aerogenes strain. Nature of the assay: Growth of strain on protamine-containing medium, mcr-1. It is filed as cell-based. As to the method: as §1
For assay [4], the system named is Colistin-susceptible Acinetobacter. Nature of the assay: Growth of strain on protamine-containing medium, ACB-S. It counts as cell-based, Acinetobacter calcoaceticus-baumannii complex. The method, then:
as §1

In assay [5] the test system is Colistin-resistant Acinetobacter. The experiment in a line: Growth of strain on protamine-containing medium, ACB-R. It counts as cell-based, Acinetobacter calcoaceticus-baumannii complex. The method, then: as §1

Counter-ions that a name gives are not always drawn.

`N=C(N)N` [guanidine hydrochloride]: the “growth of the strain” value in assay [1] is “not inhibited”.
For protamine, the Growth result in assay [2] (30% agar, protamine 50 μg/ml) is recorded as “Grown”; in assay [2] (30% agar, protamine 100 μg/ml) it was “Grown”; in assay [2] (30% agar, protamine 150 μg/ml), “Grown”; in assay [2] (30% agar, protamine 200 μg/ml), “Grown”; in assay [2] (100% agar, protamine 50 μg/ml), “Grown”; in assay [2] (100% agar, protamine 100 μg/ml), “Grown”. In addition, the Growth entry in assay [2] (100% agar, protamine 150 μg/ml) is listed as “Grown”; in assay [2] (100% agar, protamine 200 μg/ml) it was “Grown”; in assay [2] (100% agar, protamine 300 μg/ml), “Grown”; in assay [2] (100% agar, protamine 400 μg/ml), “Grown”; in assay [3] (30% agar, protamine 50 μg/ml), “Grown”; in assay [3] (30% agar, protamine 100 μg/ml), “Grown”. In addition, the Growth result in assay [3] (30% agar, protamine 150 μg/ml) is given as “Grown”; in assay [3] (30% agar, protamine 200 μg/ml), “Grown”; in assay [3] (100% agar, protamine 50 μg/ml) it was “Grown”; in assay [3] (100% agar, protamine 100 μg/ml), “Grown”; in assay [3] (100% agar, protamine 150 μg/ml), “Grown”; in assay [3] (100% agar, protamine 200 μg/ml) it was “Grown”. Moreover, the Growth entry in assay [3] (100% agar, protamine 300 μg/ml) was “Grown”; in assay [3] (100% agar, protamine 400 μg/ml) it was “Grown”; in assay [3] (100% agar, protamine 700 μg/ml), “Grown”; in assay [4] (30% agar, protamine 50 μg/ml), “Grown”; in assay [4] (30% agar, protamine 100 μg/ml), “Grown”; in assay [4] (30% agar, protamine 150 μg/ml), “Grown”. The Growth entry in assay [4] (100% agar, protamine 50 μg/ml) was “Grown”; in assay [4] (100% agar, protamine 100 μg/ml), “Grown”; in assay [4] (100% agar, protamine 150 μg/ml) it was “Grown”; in assay [4] (100% agar, protamine 200 μg/ml) it was “Grown”; in assay [4] (100% agar, protamine 300 μg/ml), “Grown”; in assay [4] (100% agar, protamine 400 μg/ml), “Grown”. Moreover, the Growth entry in assay [4] (100% agar, protamine 700 μg/ml) is “Grown”; in assay [5] (30% agar, protamine 50 μg/ml), “Grown”; in assay [5] (30% agar, protamine 100 μg/ml), “Grown”; in assay [5] (30% agar, protamine 150 μg/ml), “Grown”; in assay [5] (100% agar, protamine 50 μg/ml), “Grown”; in assay [5] (100% agar, protamine 100 μg/ml) it was “Grown”. The Growth entry in assay [5] (100% agar, protamine 150 μg/ml) is “Grown”; in assay [5] (100% agar, protamine 200 μg/ml) it was “Grown”; in assay [5] (100% agar, protamine 300 μg/ml), “Grown”; in assay [5] (100% agar, protamine 400 μg/ml) it was “Grown”.
